Experimental data reported in patent US20210087159A1, “TETRAHYDROCANNABINOLIC- CA[…] DERIVATIVES AND USES THEREOF” (AL&AM […]., priority 2018, published 2021).
pIC50: −log10 of the molar value. Like-named read-outs stand apart in the source and are kept apart here.

Columns and labels:
Type in all cases: cell-based
A549, lung carcinoma = experiment: CellTiter-Glo cell viability assay, cancer cell cytotoxicity/anti-proliferation panel (Chempartner); conditions: for Inhibition: A549, 72 hours, compounds 10 μM starting, STS 2 μM starting, 10-pt, 3-fold dilution; for pIC50: Homo sapiens, A549, 72 h, read-out: IC50 (absolute IC50)
Protocol: (§1) In this study, the biological activity of certain compounds of the present invention on cancer cell cytotoxicity/anti-proliferation panel was tested using the CellTiter-Glo® cell viability assay. The compounds were dissolved in DMSO to make 10 mM solution.
(§2) The cell lines tested were all selected from the Chempartner's cell collection and included: Caco-2 ATCC colon adenocarcinoma; TE-6 RIKEN esophagus, carcinoma; PC-3 ATCC prostate adenocarcinoma; T47D, breast ductal carcinoma; U251, brain human glioma; A549, lung carcinoma; OMP-2, multiple myeloma; SK-HEP-1, liver adenocarcinoma; PANC-1, pancreas ductal carcinoma; AsPC-1, pancreas, ductal carcinoma; and U-87 MG, brain glioblastoma.
(§3) For the assays described herein, absolute inhibition of cells growth (%) and absolute IC50 (Abs IC50; […]) were used to derive a value that can be used to compare results within and across runs in the same assay, as well as between different assays.
(§4) • a. Prepare complete medium: Add FBS and appropriate additives according to the information sheet provided by the vendor. Mix gently. • b. Check the cell name and complete medium and passage number marked on the flask. For adherent cell lines, refer to c to k. For suspension cell lines, refer to g to k. • c. Remove and discard culture medium using a vacuum pump. • d. Briefly rinse the cell layer with 0.25% (w/v) trypsin-0.038% (w/v) EDTA solution to remove all traces of serum that contains trypsin inhibitor. • e. Add 3.0 ml of trypsin-EDTA solution to flask and observe cells under an inverted microscope until cell layer is dispersed. • f. Add 8.0 ml of complete growth medium and aspirate cells by gently pipetting. • g. Transfer the cell suspension to a centrifuge tube and centrifuge at 800-1000 rpm for 3-5 minutes. • h. Discard the supernatant using a vacuum pump. • i. Add appropriate volume of complete medium. Suspend the cell pellet by gently pipetting. • j. Count the cell numbers with Vi-cell XR and adjust cells to appropriate density. • k. Add 100 μL of cell suspension to 96-well opaque-walled clear bottom plates according to the planned plate layout and place the plates in the CO2 incubator overnight. • l. Plate layout:
(§5) • Plate preparation of testing articles. 10 mM stock solution of each one of the compounds (provided as powder) was prepared in DMSO. […] 0.5 μL of each of the diluted compounds was transferred to the wells containing 100 μL of the culture medium. The total dilution was 200 fold. Cells were incubated with the compounds for 72 hours at 5% CO2, 37° C.
(§6) • Thaw the CellTiter-Glo buffer and equilibrate to room temperature prior to use. • Equilibrate the lyophilized CellTiter-Glo substrate to room temperature prior to use. • Transfer the appropriate volume of CellTiter-Glo buffer into the amber bottle containing CellTiter-Glo substrate to reconstitute the lyophilized enzyme/substrate mixture. This forms the CellTiter-Glo reagent. • Mix by gently vortexing, swirling or by inverting the contents to obtain a homogeneous solution. The CellTiter-Glo substrate should go into solution easily in less than one minute.
(§7) • Observe the cell morphology under an inverted microscope after corresponding treatment. • Equilibrate the plate and its contents to room temperature for approximately 30 minutes. • Add 100 μL of CellTiter-Glo reagent to the assay plate by Multidrop Combi instrument. • Mix contents for 10 minutes on an orbital shaker to induce cell lysis. • Allow the plate to incubate at room temperature for 10 minutes to stabilize luminescent signal. • Paste the clear bottom with white back seal and record luminescence with Enspire. The settings should be: Luminescence, measurement time 0.1 ms.
(§8) Inhibition (%) and absolute IC50 (μM) of each compound was calculated with XLFit curve fitting software that is compatible to Activity Base.

[1] = test system: PANC-1, pancreas ductal carcinoma; experiment: as above; conditions: for pIC50: Homo sapiens, PANC-1, 72 h, read-out: IC50 (absolute IC50); for Inhibition: PANC-1, 72 hours, compounds 10 μM starting, STS 2 μM starting, 10-pt, 3-fold dilution
Protocol: as §1, §2, §3, §4, §5, §6, §7, §8

[2] = test system: T47D, breast ductal carcinoma; experiment: as above; conditions: for pIC50: Homo sapiens; for Inhibition: compounds 10 μM starting, STS 2 μM starting
Protocol: as §1, §2, §3, §4, §5, §6, §7, §8

[3] = test system: U-87 MG, brain glioblastoma; experiment: as above; conditions: for Inhibition: 72 hours, compounds 10 μM starting, STS 2 μM starting, 10-pt, 3-fold dilution; for pIC50: Homo sapiens, 72 h, read-out: IC50 (absolute IC50)
Protocol: as §1, §2, §3, §4, §5, §6, §7, §8

A549 (lung carcinoma) = experiment: XTT cytotoxicity assay (Pharma Seed); conditions: Homo sapiens, 48 hours, 20, 10, 5, 1 μM, assay medium 1% FBS
Protocol: In this study, the cytotoxicity of several compounds of the present invention on lung and pancreatic cancer cell was evaluated.
A549 (lung carcinoma) culture medium: F12-K, supplemented with 10% FBS (heat inactivated), 2 mM L-glutamine, and 1% of Pen/Strep/Amp solution. A549 assay medium: F12-K, supplemented with 1% FBS (heat inactivated), 2 mM L-glutamine, and 1% of Pen/Strep/Amp solution.
Each of the tested compounds was dissolved in DMSO to reach a stock concentration of 20 mM (and stored at −15° C.-−25° C. until use. Compound Ia28 (MW 484 g/mol, 3.05 mg total) was dissolved in 0.315 mL; compound Ia9 (MW 484 g/mol, 2.33 mg total) was dissolved in 0.241 mL; and compound Ia6 (MW 428.3 g/mol, 2.25 mg total) was dissolved in 0.262 mL.
On the day of incubation with the cells, each compound was diluted in DMSO to reach 2 mM, 1 mM, 0.5 mM, 0.1 mM stock concentrations (1:10, 1:20, 1:40 and 1:200), and each of these stocks was further diluted in assay medium 1:100 for final concentration of 20 μM, 10 μM, 5 μM, and 1 μM.
Part 1—cell number calibration. PANC-1 and A549 cells were each plated in a 96 well plate, in their culture medium, at various cell concentrations per well, in triplicates, and were allowed to attach for 24 hours. Thereafter, culture medium was discarded, assay medium was added, and the cells were incubated for additional 72 hours. Finally, assay medium was discarded, and fresh culture medium was added to the cells along with 50 μl XTT reagent. The OD was measured every two hours for 6 hours (three times).
The highest cells number/well were chosen for part 2 as follows: PANC-1 at 7,500 cells per well, A549 at 5000 cells per well.
Part 2—cells incubation with tested compounds. PANC-1 and A549 cells were plated in a 96 well plate, in their culture medium, at the optimal cell concentration according to the results from the previous section and were allowed to attach for 24 hours. […] The OD was measured at the optimal time point according to the results in the previous section.

[4] = T47D, 72 h, read-out: IC50 (absolute IC50)
[5] = T47D, 72 hours, 10-pt, 3-fold dilution

| Compound | Inhibition (A549, lung carcinoma) [%] | pIC50 (A549, lung carcinoma) | pIC50 [1] | Inhibition [1] [%] | pIC50 [2, 4] | Inhibition [2, 5] [%] | Inhibition [3] [%] | pIC50 [3] | pIC50 ([2]; Table 5, T47D cells, 72 hours, read-out: AbsIC50) | Inhibition % ([2]; Table 5, T47D cells, 72 hours, 10 μM starting, 10-pt, 3-fold dilution) [%] | pIC50 (A549 (lung carcinoma)) |
| --- | --- | --- | --- | --- | --- | --- | --- | --- | --- | --- | --- |
| CCCCCc1cc2c(c(O)c1C(=O)O)[C@@H]1C=C(C)CC[C@H]1C(C)(C)O2 [THCA, tetrahydrocannabinolic acid, reference compound] | 9.30 | < 5.00 | < 5.00 | 15.20 | < 5.00 | 18.20 | 10.52 | < 5.00 |  |  |  |
| C=C(C)[C@@H]1CCC(C)=C[C@H]1c1c(O)cc(CCCCC)c(C(=O)NCCCN2CCOCC2)c1O [Ia28, (1′R,2′R)-2,6-dihydroxy-5′-methyl-N-(3-morpholinopropyl)-4-pentyl-2′-(prop-1-en-2-yl)-1′,2′,3′,4′-tetrahydro-[1,1′-biphenyl]-3-carboxamide] |  |  |  |  |  |  |  |  | < 5.00 | 14.85 | 4.96 |
| CCCCCc1cc2c(c(O)c1C(=O)NCCN(C)C)[C@@H]1C=C(C)CC[C@H]1C(C)(C)O2 [Ia6, (6aR,0aR)—N-(2-(dimethylamino)ethyl)-1-hydroxy-6,6,9-trimethyl-3-pentyl-6a,7,8,10a-tetrahydro-6H-benzo[c]chromene-2-carboxamide] | 66.67 | 5.13 | 5.22 | 90.10 | 5.22 | 84.19 | 13.79 | < 5.00 |  |  | 5.28 |
| CCCCCc1cc2c(c(O)c1C(=O)NCCCN1CCOCC1)[C@@H]1C=C(C)CC[C@H]1C(C)(C)O2 [Ia9, (6aR,0aR)-1-hydroxy-6,6,9-trimethyl-N-(3-morpholinopropyl)-3-pentyl-6a,7,8,10a-tetrahydro-6H-benzo[c]chromene-2-carboxamide] | 77.08 | 5.25 | 5.26 | 92.19 | 5.26 | 97.90 | 19.84 | < 5.00 |  |  | 5.11 |
